In PubChem BioAssay (NCI) one finds TGI data, which are given here for eight compounds.

The structures appear in SMILES notation.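 Dose response: 5 concentrations. Exposure: 48 h. Format: 96-well plates. Endpoint: linear interpolation; highest concentration if not reached. TGI: total growth inhibition.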

The first test has as its system MCF7 breast. The test is described as follows: growth of human tumour cells (NCI), 48 h.
As for `Cc1ccc(C2=Nc3cccc4cccc(c34)N2)cc1`, the TGI was above 100 µM.
Turning to `N#CC12C(=O)N3C(=NC(c4ccccc4)NC3c3ccccc3)C1(C#N)C(c1ccccc1)NC1=C2CCC1` (stereo not given), the TGI was above 100 µM.
Consider `O=C(/C=C/c1ccccc1)CCN1CCN(CCC(=O)/C=C/c2ccccc2)CC1`, for which the TGI stood at 20.7 µM.
Same read-out and setting: for `COC(=O)c1ccccc1CC1Cc2ccc3c(c2C1=O)CCC3` (stereo not given) the value was 90.3 µM.
On the same count and under the same terms, to `CS(=O)(=O)N1CC(CCl)c2ccc([N+](=O)[O-])cc21` (stereo not given) belongs above 100 µM; to `N=c1oc2c(Cl)cc(Cl)cc2cc1C(=O)Nc1cccc2ccccc12`, above 100 µM; to `O=c1cc(NNc2ccccc2)[nH]c(=S)[nH]1`, above 100 µM.
`CC(=O)NC(CS/N=N/c1nc[nH]c1C(N)=O)C(=O)O` (stereo not given) returned a TGI above 100 µM.

The next test relates to K-562 leukemia. The test is described as follows: growth of human tumour cells (NCI), 48 h.
Compound `Cc1ccc(C2=Nc3cccc4cccc(c34)N2)cc1` returned a TGI above 100 µM.
On the same count and under the same terms, to `N#CC12C(=O)N3C(=NC(c4ccccc4)NC3c3ccccc3)C1(C#N)C(c1ccccc1)NC1=C2CCC1` (stereo not given) belongs above 100 µM.
Same read-out and setting: to `O=C(/C=C/c1ccccc1)CCN1CCN(CCC(=O)/C=C/c2ccccc2)CC1` belongs above 100 µM; to `COC(=O)c1ccccc1CC1Cc2ccc3c(c2C1=O)CCC3` (stereo not given), above 100 µM; to `CS(=O)(=O)N1CC(CCl)c2ccc([N+](=O)[O-])cc21` (stereo not given), above 100 µM.
On the same count and under the same terms, to `N=c1oc2c(Cl)cc(Cl)cc2cc1C(=O)Nc1cccc2ccccc12` belongs above 53.3 µM; to `O=c1cc(NNc2ccccc2)[nH]c(=S)[nH]1`, 80.2 µM; to `CC(=O)NC(CS/N=N/c1nc[nH]c1C(N)=O)C(=O)O` (stereo not given), above 100 µM.

A further test deals with HCT-15 colon. Nature of the test: growth of human tumour cells (NCI), 48 h.
For the compound `Cc1ccc(C2=Nc3cccc4cccc(c34)N2)cc1`, the TGI is above 100 µM.
With `N#CC12C(=O)N3C(=NC(c4ccccc4)NC3c3ccccc3)C1(C#N)C(c1ccccc1)NC1=C2CCC1` (stereo not given), the TGI is above 100 µM.
On to `O=C(/C=C/c1ccccc1)CCN1CCN(CCC(=O)/C=C/c2ccccc2)CC1`, for which the TGI turned out to be 23 µM.
The compound `COC(=O)c1ccccc1CC1Cc2ccc3c(c2C1=O)CCC3` (stereo not given) showed a TGI above 100 µM.
`CS(=O)(=O)N1CC(CCl)c2ccc([N+](=O)[O-])cc21` (stereo not given) gave a TGI above 100 µM.
The same measure, in the same setting: for `N=c1oc2c(Cl)cc(Cl)cc2cc1C(=O)Nc1cccc2ccccc12` the value was above 100 µM; for `O=c1cc(NNc2ccccc2)[nH]c(=S)[nH]1`, 42.1 µM.
On the same count and under the same terms, to `CC(=O)NC(CS/N=N/c1nc[nH]c1C(N)=O)C(=O)O` (stereo not given) belongs above 100 µM.

A further test deals with SK-MEL-28 melanoma. Nature of the test: growth of human tumour cells (NCI), 48 h.
`Cc1ccc(C2=Nc3cccc4cccc(c34)N2)cc1` returned a TGI above 100 µM.
As to `N#CC12C(=O)N3C(=NC(c4ccccc4)NC3c3ccccc3)C1(C#N)C(c1ccccc1)NC1=C2CCC1` (stereo not given), the TGI was above 100 µM.
On the same count and under the same terms, for `O=C(/C=C/c1ccccc1)CCN1CCN(CCC(=O)/C=C/c2ccccc2)CC1` the value was 27.8 µM; for `COC(=O)c1ccccc1CC1Cc2ccc3c(c2C1=O)CCC3` (stereo not given), above 100 µM.
Still for that read-out and setting: for `CS(=O)(=O)N1CC(CCl)c2ccc([N+](=O)[O-])cc21` (stereo not given) the value was above 100 µM; for `N=c1oc2c(Cl)cc(Cl)cc2cc1C(=O)Nc1cccc2ccccc12`, above 100 µM.
With `O=c1cc(NNc2ccccc2)[nH]c(=S)[nH]1`, the TGI was above 100 µM.
`CC(=O)NC(CS/N=N/c1nc[nH]c1C(N)=O)C(=O)O` (stereo not given) yielded a TGI above 100 µM.

In the next test the test system is NCI-H23 lung. Nature of the test: growth of human tumour cells (NCI), 48 h.
In the case of `Cc1ccc(C2=Nc3cccc4cccc(c34)N2)cc1`, the TGI is above 100 µM.
Take `N#CC12C(=O)N3C(=NC(c4ccccc4)NC3c3ccccc3)C1(C#N)C(c1ccccc1)NC1=C2CCC1` (stereo not given): the TGI is above 100 µM.
Still for that read-out and setting: to `O=C(/C=C/c1ccccc1)CCN1CCN(CCC(=O)/C=C/c2ccccc2)CC1` belongs 31.2 µM.
Still for that read-out and setting: to `COC(=O)c1ccccc1CC1Cc2ccc3c(c2C1=O)CCC3` (stereo not given) belongs above 100 µM.
On the same count and under the same terms, to `CS(=O)(=O)N1CC(CCl)c2ccc([N+](=O)[O-])cc21` (stereo not given) belongs above 100 µM; to `N=c1oc2c(Cl)cc(Cl)cc2cc1C(=O)Nc1cccc2ccccc12`, above 52.6 µM.
As to `O=c1cc(NNc2ccccc2)[nH]c(=S)[nH]1`, the TGI was above 100 µM.
Same read-out and setting: for `CC(=O)NC(CS/N=N/c1nc[nH]c1C(N)=O)C(=O)O` (stereo not given) the value was above 100 µM.

The subject of another test is M14 melanoma. The test is described as follows: growth of human tumour cells (NCI), 48 h.
Compound `Cc1ccc(C2=Nc3cccc4cccc(c34)N2)cc1` returned a TGI above 100 µM.
As to `N#CC12C(=O)N3C(=NC(c4ccccc4)NC3c3ccccc3)C1(C#N)C(c1ccccc1)NC1=C2CCC1` (stereo not given), the TGI was above 100 µM.
Same read-out and setting: to `O=C(/C=C/c1ccccc1)CCN1CCN(CCC(=O)/C=C/c2ccccc2)CC1` belongs 23.9 µM; to `COC(=O)c1ccccc1CC1Cc2ccc3c(c2C1=O)CCC3` (stereo not given), above 100 µM; to `CS(=O)(=O)N1CC(CCl)c2ccc([N+](=O)[O-])cc21` (stereo not given), above 100 µM.
On the same count and under the same terms, to `N=c1oc2c(Cl)cc(Cl)cc2cc1C(=O)Nc1cccc2ccccc12` belongs above 100 µM.
Same read-out and setting: to `O=c1cc(NNc2ccccc2)[nH]c(=S)[nH]1` belongs above 100 µM; to `CC(=O)NC(CS/N=N/c1nc[nH]c1C(N)=O)C(=O)O` (stereo not given), above 100 µM.

The subject of a further test is U251 CNS. The test is described as follows: growth of human tumour cells (NCI), 48 h.
In turn, `Cc1ccc(C2=Nc3cccc4cccc(c34)N2)cc1` showed a TGI above 100 µM.
`N#CC12C(=O)N3C(=NC(c4ccccc4)NC3c3ccccc3)C1(C#N)C(c1ccccc1)NC1=C2CCC1` (stereo not given) returned a TGI above 100 µM.
Regarding `O=C(/C=C/c1ccccc1)CCN1CCN(CCC(=O)/C=C/c2ccccc2)CC1`, the TGI came out at 30.3 µM.
`COC(=O)c1ccccc1CC1Cc2ccc3c(c2C1=O)CCC3` (stereo not given) showed a TGI above 100 µM.
On the same count and under the same terms, for `CS(=O)(=O)N1CC(CCl)c2ccc([N+](=O)[O-])cc21` (stereo not given) the value was above 100 µM.
As for `N=c1oc2c(Cl)cc(Cl)cc2cc1C(=O)Nc1cccc2ccccc12`, the TGI turned out to be 7.01 µM.
Take `O=c1cc(NNc2ccccc2)[nH]c(=S)[nH]1`: the TGI was above 100 µM.
`CC(=O)NC(CS/N=N/c1nc[nH]c1C(N)=O)C(=O)O` (stereo not given) showed a TGI above 100 µM.

The next test has as its system HL-60(TB) leukemia. The test is described as follows: growth of human tumour cells (NCI), 48 h.
For the compound `Cc1ccc(C2=Nc3cccc4cccc(c34)N2)cc1`, the TGI is above 100 µM.
On the same count and under the same terms, for `N#CC12C(=O)N3C(=NC(c4ccccc4)NC3c3ccccc3)C1(C#N)C(c1ccccc1)NC1=C2CCC1` (stereo not given) the value was above 100 µM; for `O=C(/C=C/c1ccccc1)CCN1CCN(CCC(=O)/C=C/c2ccccc2)CC1`, above 100 µM.
The same measure, in the same setting: for `COC(=O)c1ccccc1CC1Cc2ccc3c(c2C1=O)CCC3` (stereo not given) the value was 84.8 µM; for `CS(=O)(=O)N1CC(CCl)c2ccc([N+](=O)[O-])cc21` (stereo not given), above 100 µM.
Still for that read-out and setting: for `N=c1oc2c(Cl)cc(Cl)cc2cc1C(=O)Nc1cccc2ccccc12` the value was above 100 µM.
The compound `O=c1cc(NNc2ccccc2)[nH]c(=S)[nH]1` registered a TGI of 62.6 µM.
Same read-out and setting: for `CC(=O)NC(CS/N=N/c1nc[nH]c1C(N)=O)C(=O)O` (stereo not given) the value was above 23.7 µM.

The next test has as its system HOP-92 NSCLC. Nature of the test: growth of human tumour cells (NCI), 48 h.
`Cc1ccc(C2=Nc3cccc4cccc(c34)N2)cc1` registered a TGI above 100 µM.
`N#CC12C(=O)N3C(=NC(c4ccccc4)NC3c3ccccc3)C1(C#N)C(c1ccccc1)NC1=C2CCC1` (stereo not given) came in with a TGI above 100 µM.
Still for that read-out and setting: to `O=C(/C=C/c1ccccc1)CCN1CCN(CCC(=O)/C=C/c2ccccc2)CC1` belongs 35.9 µM; to `COC(=O)c1ccccc1CC1Cc2ccc3c(c2C1=O)CCC3` (stereo not given), 94.9 µM; to `CS(=O)(=O)N1CC(CCl)c2ccc([N+](=O)[O-])cc21` (stereo not given), above 100 µM.
Consider `N=c1oc2c(Cl)cc(Cl)cc2cc1C(=O)Nc1cccc2ccccc12`, for which the TGI came out at 97.7 µM.
On the same count and under the same terms, for `O=c1cc(NNc2ccccc2)[nH]c(=S)[nH]1` the value was above 100 µM.
For `CC(=O)NC(CS/N=N/c1nc[nH]c1C(N)=O)C(=O)O` (stereo not given), the TGI is above 100 µM.

In a further test the test system is SK-MEL-5 melanoma. The test is described as follows: growth of human tumour cells (NCI), 48 h.
Regarding `Cc1ccc(C2=Nc3cccc4cccc(c34)N2)cc1`, the TGI was above 100 µM.
On the same count and under the same terms, for `N#CC12C(=O)N3C(=NC(c4ccccc4)NC3c3ccccc3)C1(C#N)C(c1ccccc1)NC1=C2CCC1` (stereo not given) the value was above 100 µM; for `O=C(/C=C/c1ccccc1)CCN1CCN(CCC(=O)/C=C/c2ccccc2)CC1`, 28.7 µM; for `COC(=O)c1ccccc1CC1Cc2ccc3c(c2C1=O)CCC3` (stereo not given), 62.3 µM.
As to `CS(=O)(=O)N1CC(CCl)c2ccc([N+](=O)[O-])cc21` (stereo not given), the TGI is above 100 µM.
`N=c1oc2c(Cl)cc(Cl)cc2cc1C(=O)Nc1cccc2ccccc12`: the TGI was above 100 µM.
Still for that read-out and setting: to `O=c1cc(NNc2ccccc2)[nH]c(=S)[nH]1` belongs above 100 µM.
The same measure, in the same setting: for `CC(=O)NC(CS/N=N/c1nc[nH]c1C(N)=O)C(=O)O` (stereo not given) the value was above 100 µM.
